Measurements taken from patent publication US9732093B2, “FLAP modulators” (JANSSEN PHARMACEUTICA NV, priority 2013, dated 2017).
Counter-ions that a name gives are not always drawn. Like-named read-outs stand apart in the source and are kept apart here.

Experiments:
human FLAP = human FLAP (Homo sapiens (Human), UniProt P20292); test: FLAP binding assay (HTRF format)
Summary of the method: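 HTRF ratio read-out; two independent plates, samples in duplicate on each, values averaged across plates.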

[1] = test system: leukotriene pathway in human whole blood; test: Human whole blood assay (LTB4 levels after A23187 stimulation); format: cell-based
Description: The ability of the compounds of the present invention to treat a FLAP-mediated disease and/or disorder, or associated symptoms or complications thereof, was determined using the following procedures. Binding assay data represent the average value obtained from two different assay plates, with samples run in duplicate on each plate. Human whole blood assay data represent a single replicate on an assay plate using whole blood from at least one healthy donor.
An in vitro cellular assay was performed using human whole blood collected in heparin-containing tubes, which was used to test the ability of compounds to modulate the leukotriene pathway in human whole blood. The blood was diluted 1:1 in RPMI medium, pre-incubated for 15 min at 37° Celsius with test compounds at various concentrations, and then stimulated with calcium ionophore, A23187 (7 μg/mL), for 30 min at 37° Celsius. The samples were then centrifuged and plasma was removed. The plasma was diluted in assay buffer and LTB4 levels were measured using a commercial kit (Enzo Life Sciences). The concentration of each compound that was required for half-maximal inhibition (modulation) of recombinant enzyme activity (IC50) was calculated by a 4-parameter equation using the program GraphPad Prism (GraphPad software).

[2] = human FLAP wild type membranes, HTRF format, Table 6 (additional runs)
[3] = human whole blood diluted 1:1 in RPMI, A23187 stimulation, Table 6 (additional runs)
[4] = human FLAP-containing membranes, HTRF ligand 25 nM, 2 h, average of two plates, duplicates, read-out: FLAP Binding wild type HTRF Ki
[5] = Homo sapiens, blood diluted 1:1 in RPMI, 15 min pre-incubation, A23187 7 μg/mL for 30 min at 37° Celsius, plasma LTB4

human FLAP, sequence (P20292 whole entry): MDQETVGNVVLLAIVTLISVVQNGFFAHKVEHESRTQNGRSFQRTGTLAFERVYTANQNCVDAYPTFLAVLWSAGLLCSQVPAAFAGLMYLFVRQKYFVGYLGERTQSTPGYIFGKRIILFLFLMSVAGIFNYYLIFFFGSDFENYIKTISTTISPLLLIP

Row | Structure (SMILES) | Ki (human FLAP; [2]) [nM] | IC50 [1, 3] [nM] | Ki (human FLAP; [4]) [nM] | IC50 [1, 5] [nM]
1 | Nc1cnc(-c2ccc(C3CCC3)c(Oc3cc(N)ncn3)c2F)cn1 [Example 136, 6-[3-(5-Aminopyrazin-2-yl)-6-cyclobutyl-2-fluorophenoxy]pyrimidin-4-amine] | 3.9 | 56.6 | – | –
2 | Fc1c(-c2cnc3[nH]ccc3n2)ccc(C2CCC2)c1OCc1ccccc1 [Example 178, 2-[3-(Benzyloxy)-4-cyclobutyl-2-fluorophenyl]-5H-pyrrolo[2.3-b]pyrazine] | – | 771 | 354 | –
3 | CC(C)(C)c1ccc(-c2cnc(N)nc2)c(F)c1Oc1ncccn1 [Example 207, 5-[4-tert-Butyl-2-fluoro-3-(pyrimidin-2-yloxy)phenyl]pyrimidin-2-amine] | 51.5 | 78 | – | –
4 | Fc1c(-c2cnc3c(c2)OCCN3)ccc(C2CCC2)c1Oc1ncccn1 [Example 225, 7-(4-Cyclobutyl-2-fluoro-3-(pyrimidin-2-yloxy)phenyl)-3,4-dihydro-2H-pyrido[3,2-b][1,4]oxazine] | 23.2 | 287 | – | –
5 | N#Cc1cccnc1COc1c(C2CCC2)ccc(-c2cnc(N)cn2)c1F [Example 286, 2-{[3-(5-Aminopyrazin-2-yl)-6-cyclobutyl-2-fluorophenoxy]methyl)}pyridine-3-carbonitrile trifluoroacetic acid salt] | 81.7 | 1190 | – | –
6 | Cc1nc(COc2c(C3CCC3)ccc(-c3cnc(N)cn3)c2F)cs1 [Example 287, 5-{4-Cyclobutyl-2-fluoro-3-[(2-methyl-1,3-thiazol-4-yl)methoxy]phenyl}pyrazin-2-amine trifluoroacetic acid salt] | 17.6 | > 1000 | – | –
7 | Nc1ncc(-c2ccc(C3CCCC3)c(Oc3ncccn3)c2F)cn1 [Example 334, 5-[4-Cyclopentyl-2-fluoro-3-(pyrimidin-2-yloxy)phenyl]pyrimidin-2-amine] | 4.6 | 52.7 | – | –
8 | Nc1ccnc(Oc2c(C3CCCC3)ccc(-c3cnc(N)nc3)c2F)n1 [Example 335, 5-{3-[(4-Aminopyrimidin-2-yl)oxy]-4-cyclopentyl-2-fluorophenyl}pyrimidin-2-amine] | 3.6 | 36.9 | – | –
9 | Nc1cnc(-c2ccc(C3CCCC3)c(Oc3nccc(N)n3)c2F)cn1 [Example 336, 2-[3-(5-Aminopyrazin-2-yl)-6-cyclopentyl-2-fluorophenoxy]pyrimidin-4-amine] | 3.9 | 23.8 | – | –
10 | Nc1cnc(-c2ccc(C3CCCC3)c(Oc3ncccn3)c2F)cn1 [Example 337, 5-[4-Cyclopentyl-2-fluoro-3-(pyrimidin-2-yloxy)phenyl]pyrazin-2-amine] | 14.8 | 162 | – | –
11 | Nc1cnc(-c2ccc(C3CCC3)c(Oc3ccc(N)nn3)c2F)cn1 [Example 338, 6-[3-(5-Aminopyrazin-2-yl)-6-cyclobutyl-2-fluorophenoxy]pyridazin-3-amine] | 1.7 | 95.9 | – | –
12 | Nc1cnc(-c2ccc(C3CCC3)c(OCc3ncccn3)c2F)cn1 [Example 339, 5-[4-Cyclobutyl-2-fluoro-3-(pyrimidin-2-ylmethoxy)phenyl]pyrazin-2-amine] | 108 | 1640 | – | –
13 | Nc1cnc(-c2ccc(C3CCC3)c(OCc3ccc(-c4cnc(N)nc4)cc3)c2F)cn1 [Example 341, 5-(4-{[3-(5-Aminopyrazin-2-yl)-6-cyclobutyl-2-fluorophenoxy]methyl}phenyl)pyrimidin-2-amine] | 22.6 | 124 | – | –
14 | Nc1cnc(-c2ccc(C3CCC3)c(OCc3ccc(-c4ccc(C(F)(F)F)cc4)cc3)c2F)cn1 [Example 342, 5-(4-Cyclobutyl-2-fluor-3-{[4-(trifluoromethyl)biphenyl-4-yl]methoxy}phenyl)pyrazin-2-amine] | 8.1 | 26.3 | – | –
15 | Nc1ncc(-c2ccc(C3CCCCC3)c(Oc3ncccn3)c2F)cn1 [Example 343, 5-[4-Cyclohexyl-2-fluoro-3-(pyrimidin-2-yloxy)phenyl]pyrimidin-2-amine] | 5.4 | 14.4 | – | –
16 | Nc1cnc(-c2ccc(C3CCCCC3)c(O)c2F)cn1 [Example 345, 3-(5-Aminopyrazin-2-yl)-6-cyclohexyl-2-fluorophenol] | 14.2 | 15.1 | – | –

Second part, the compound after the results:

Row | Ki (human FLAP; [2]) [nM] | IC50 [1, 3] [nM] | Ki (human FLAP; [4]) [nM] | IC50 [1, 5] [nM] | Structure (SMILES)
17 | 45.3 | 176 | – | – | Nc1cnc(-c2ccc(CC3CCCCC3)c(O)c2F)cn1 [Example 346, 3-(5-Aminopyrazin-2-yl)-6-(cyclohexylmethyl)-2-fluorophenol]
18 | 47.6 | 396 | – | – | Nc1cnc(-c2ccc(C3CCC3)c(Oc3ccnc(N)c3)c2F)cn1 [Example 347, 5-{3-[(2-Aminopyridin-4-yl)oxy]-4-cyclobutyl-2-fluorophenyl}pyrazin-2-amine]
19 | 13.1 | 147 | – | – | Nc1cnc(-c2ccc(C3CCC3)c(Oc3cncc(N)n3)c2F)cn1 [Example 348, 5-{3-[(6-Aminopyrazin-2-yl)oxy]-4-cyclobutyl-2-fluorophenyl}pyrazin-2-amine]
20 | 31 | > 1000 | – | – | Nc1cnc(-c2ccc(C3CCC3)c(Oc3cncnc3)c2F)cn1 [Example 349, 5-[4-Cyclobutyl-2-fluoro-3-(pyrimidin-5-yloxy)phenyl]pyrazin-2-amine]
21 | 52.9 | 449 | – | – | Nc1cnnc(Oc2c(C3CCC3)ccc(-c3cnc(N)cn3)c2F)c1 [Example 350, 6-[3-(5-Aminopyrazin-2-yl)-6-cyclobutyl-2-fluorophenoxy]pyridazin-4-amine]
22 | 54.4 | 124 | – | – | CC(C)(C)c1ccc(-c2cnc3[nH]ccc3c2)c(F)c1Oc1ncccn1 [Example 351, 5-[4-tert-Butyl-2-fluoro-3-(pyrimidin-2-yloxy)phenyl]-1H-pyrrolo[2.3-b]pyridine]
23 | 99.5 | 1100 | – | 1100 | Nc1ncc(-c2ccc(C3CCC3)c(O)c2F)cn1 [Intermediate E, 3-(2-Aminopyrimidin-5-yl)-6-cyclobutyl-2-fluorophenol]
24 | – | 575 | 77.9 | 575 | CC(C)(C)c1ccc(-c2cnc(N)cn2)c(F)c1O [Intermediate G, 3-(5-Aminopyrazin-2-yl)-6-tert-butyl-2-fluorophenol]
25 | – | 287 | 72.3 | 287 | CC(C)(C)c1ccc(-c2cnc(N)nc2)c(F)c1O [Intermediate H, 3-(2-Aminopyrimidin-5-yl)-6-tert-butyl-2-fluorophenol]
